In patent publication US12479887B2, “Inhibitors for protein n-terminal methyltransferase and uses thereof” (Purdue Research Foundation, priority 2018, dated 2025):
Non-standard residues stand in square brackets, D forms with d. Residues, ends and D or L forms follow the SMILES beside them. *: point of attachment. Acetyl(1-naphthyl) = O=C(Cc1cccc2ccccc12)*; dHpg = N[C@@H](C(=O)O)c1ccc(O)cc1; Hpg = N[C@H](C(=O)O)c1ccc(O)cc1; Pra = C#CC[C@H](N)C(=O)O; X1 = O=C(Cc1ccc(O)cc1)*; ClAc = O=C(CCl)*

What follows are molecules tested against N-terminal methyltransferase1 (NTMT1) (Homo sapiens (Human), UniProt Q9BV86) (assay: NTMT1 inhibition IC50, SAH hydrolase-coupled fluorescence assay). Conditions: not given.
Sequence of N-terminal methyltransferase1 (NTMT1) (Q9BV86 1-222): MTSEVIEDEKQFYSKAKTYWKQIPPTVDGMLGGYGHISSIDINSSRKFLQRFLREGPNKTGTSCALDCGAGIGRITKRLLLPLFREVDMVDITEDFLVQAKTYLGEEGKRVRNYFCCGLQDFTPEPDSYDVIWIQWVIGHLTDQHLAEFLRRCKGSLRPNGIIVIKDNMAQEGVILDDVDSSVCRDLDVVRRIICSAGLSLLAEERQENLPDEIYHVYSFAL
Type: biochemical
Experimental: The inhibitors ranging in concentration from (2 μL of 0.14 μM-1 mM) and following a three-fold dilution were incubated with 0.2 μM NTMT1 with a reaction mixture which was added in the following order: H2O, 10× Tris-HCl Buffer (2 μL of 250 mM Tris pH 7.4, 100 mM NaCl, and 500 mM KCl), SAH hydrolase (1 μL of 100 μM), SAM (0.2 μL of 10 mM), NTMT1 (1 μL of 4 μM) and ThioGlo1 (0.2 μL of 1.5 mM DMSO solution). After 10 mins of incubation at 37° C., the reaction was initiated with 1 μM of GPKRIA. Fluorescence intensity was monitored using a BMG ClarioStar microplate reader (Ex=380 nm, Em=510 nm) at 37° C. for 15 min. The rates were fit to the log[inhibitor] vs response model using least squares nonlinear regression through GraphPad Prism 7 software. All experiments were performed in triplicate.
Molecule `N=C(N)NCCC[C@H](NC(=O)[C@H](CCCCN)NC(=O)[C@@H]1CCCN1C(=O)Cc1cccc2ccccc12)C(N)=O` [Compound 1, (S)—N—((S)-6-amino-1-(((S)-1-amino-5-guanidino-1-oxopentan-2-yl)amino)-1-oxohexan-2-yl)-1-(2-(naphthalen-1-yl)acetyl)pyrrolidine-2-carboxamide] has an IC50 of 400 ± 30 nM.
With `N=C(N)NCCC[C@H](NC(=O)[C@H](CCCCN)NC(=O)[C@@H]1CCCN1C(=O)/C=C/c1ccc(O)cc1)C(N)=O` [Compound 17, (S)—N—((S)-6-amino-1-(((S)-1-amino-5-guanidino-1-oxopentan-2-yl)amino)-1-oxohexan-2-yl)-1-((E)-3-(4-hydroxyphenyl)acryloyl)pyrrolidine-2-carboxamide] the IC50 was 2500 nM.
With `N=C(N)NCCC[C@H](NC(=O)[C@H](CCCCN)NC(=O)[C@@H]1CCCN1C(=O)[C@H](NC(=O)Cc1ccc(O)cc1)c1ccc(O)cc1)C(N)=O` [Compound 21, (S)—N—((S)-6-amino-1-(((S)-1-amino-5-guanidino-1-oxopentan-2-yl)amino)-1-oxohexan-2-yl)-1-((R)-2-(4-hydroxyphenyl)-2-(2-(4-hydroxyphenyl)acetamido)acetyl)pyrrolidine-2-carboxamide] (X1-[dHpg]PKR-NH2) the IC50 was > 100000 nM.
`N=C(N)NCCC[C@H](NC(=O)[C@H](CCCCN)NC(=O)[C@@H]1CCCN1C(=O)[C@@H](NC(=O)Cc1ccc(O)cc1)c1ccc(O)cc1)C(N)=O` [Compound 22, (S)—N—((S)-6-amino-1-(((S)-1-amino-5-guanidino-1-oxopentan-2-yl)amino)-1-oxohexan-2-yl)-1-((S)-2-(4-hydroxyphenyl)-2-(2-(4-hydroxyphenyl)acetamido)acetyl)pyrrolidine-2-carboxamide] (X1-[Hpg]PKR-NH2) was tested, and the IC50 was > 100000 nM.
In the case of `N=C(N)NCCC[C@H](NC(=O)[C@H](CCCCN)NC(=O)[C@@H]1CCCN1C(=O)[C@H](NCCc1ccc(O)cc1)c1ccc(O)cc1)C(N)=O` [Compound 23, (S)—N—((S)-6-amino-1-(((S)-1-amino-5-guanidino-1-oxopentan-2-yl)amino)-1-oxohexan-2-yl)-1-((R)-2-((4-hydroxyphenethyl)amino)-2-(4-hydroxyphenyl)acetyl)pyrrolidine-2-carboxamide], the IC50 is reported as > 100000 nM.
Molecule `CC[C@H](C)[C@H](NC(=O)[C@H](CCCNC(=N)N)NC(=O)[C@H](CCCCN)NC(=O)[C@@H]1CCCN1C(=O)Cc1cccc2ccccc12)C(N)=O` [Compound 24, (S)—N—((S)-6-amino-1-(((S)-1-(((2S,3S)-1-amino-3-methyl-1-oxopentan-2-yl)amino)-5-guanidino-1-oxopentan-2-yl)amino)-1-oxohexan-2-yl)-1-(2-(naphthalen-1-yl)acetyl)pyrrolidine-2-carboxamide] ({Acetyl(1-naphthyl)}-PKRI-NH2) has an IC50 of 60 nM.
Work on `N=C(N)NCCC[C@H](NC(=O)[C@H](CCCNC(=N)N)NC(=O)[C@H](CCCCN)NC(=O)[C@@H]1CCCN1C(=O)Cc1cccc2ccccc12)C(N)=O` [Compound 25, (S)—N—((S)-6-amino-1-(((S)-1-(((S)-1-amino-5-guanidino-1-oxopentan-2-yl)amino)-5-guanidino-1-oxopentan-2-yl)amino)-1-oxohexan-2-yl)-1-(2-(naphthalen-1-yl)acetyl)pyrrolidine-2-carboxamide] ({Acetyl(1-naphthyl)}-PKRR-NH2) yielded an IC50 of 40 nM.
In the case of `C#CC[C@H](NC(=O)[C@H](CCCNC(=N)N)NC(=O)[C@H](CCCCN)NC(=O)[C@@H]1CCCN1C(=O)Cc1cccc2ccccc12)C(N)=O` [Compound 26, (S)—N—((S)-6-amino-1-(((S)-1-(((S)-1-amino-1-oxopent-4-yn-2-yl)amino)-5-guanidino-1-oxopentan-2-yl)amino)-1-oxohexan-2-yl)-1-(2-(naphthalen-1-yl)acetyl)pyrrolidine-2-carboxamide] ({Acetyl(1-naphthyl)}-PKR[Pra]-NH2), the IC50 is reported as 90 nM.
With `N=C(N)NCCC[C@H](NC(=O)[C@H](CCCCN)NC(=O)[C@@H]1CCCN1C(=O)Cc1cccc2ccccc12)C(=O)N[C@@H](Cc1c[nH]c2ccccc12)C(N)=O` [Compound 43] ({Acetyl(1-naphthyl)}-PKRW-NH2) the IC50 was 95 ± 26 nM.
With `N=C(N)NCCC[C@H](NC(=O)[C@H](CCCCN)NC(=O)[C@@H]1CCCN1C(=O)Cc1cccc2ccccc12)C(=O)N[C@@H](Cc1ccc(O)cc1)C(N)=O` [Compound 44, (S)—N—((S)-6-amino-1-(((S)-1-(((S)-1-amino-3-(4-hydroxyphenyl)-1-oxopropan-2-yl)amino)-5-guanidino-1-oxopentan-2-yl)amino)-1-oxohexan-2-yl)-1-(2-(naphthalen-1-yl)acetyl)pyrrolidine-2-carboxamide] ({Acetyl(1-naphthyl)}-PKRY-NH2) the IC50 was 79 ± 13 nM.
For `N=C(N)NCCC[C@H](NC(=O)[C@H](CCCCN)NC(=O)[C@@H]1CCCN1C(=O)[C@@H](NCCc1ccc(O)cc1)c1ccc(O)cc1)C(N)=O` [Compound 47, (S)—N—((S)-6-amino-1-(((S)-1-amino-5-guanidino-1-oxopentan-2-yl)amino)-1-oxohexan-2-yl)-1-((S)-2-((4-hydroxyphenethyl)amino)-2-(4-hydroxyphenyl)acetyl)pyrrolidine-2-carboxamide], the IC50 was > 100000 nM.

Same assay, conditions: 0.2 μM NTMT1, 1 μM GPKRIA peptide substrate, 37° C., ThioGlo1 fluorescence
With `N=C(N)NCCC[C@H](NC(=O)[C@H](CCCCN)NC(=O)[C@@H]1CCCN1C(=O)Cc1cccc2[nH]ccc12)C(N)=O` [Compound 4, (S)-1-(2-(1H-indol-4-yl)acetyl)-N—((S)-6-amino-1-(((S)-1-amino-5-guanidino-1-oxopentan-2-yl)amino)-1-oxohexan-2-yl)pyrrolidine-2-carboxamide] the IC50 was 160 ± 70 nM.
For `NCCCC[C@H](NC(=O)CN(C(=O)Cc1cccc2ccccc12)C1CCCC1)C(N)=O` [Compound 10, (S)-6-amino-2-(2-(N-cyclopentyl-2-(naphthalen-1-yl)acetamido)acetamido)hexanamide], the IC50 was > 100000 nM.
`NCCCC[C@H](NC(=O)c1cn(CC(=O)Nc2ccccc2)nn1)C(N)=O` [Compound 11, (S)—N-(1,6-diamino-1-oxohexan-2-yl)-1-(2-oxo-2-(phenylamino)ethyl)-1H-1,2,3-triazole-4-carboxamide] was tested, and the IC50 was > 100000 nM.
`N=C(N)NCCC[C@H](NC(=O)[C@H](CCCCN)NC(=O)[C@@H]1CCCN1C(=O)[C@@H]1CCCN1C(=O)CCl)C(=O)O` [Compound 12, (2-chloroacetyl)-L-prolyl-L-prolyl-L-lysyl-L-arginine] (ClAc-PPKR-OH) was tested, and the IC50 was 16000 ± 5900 nM.
`N=C(N)NCCC[C@H](NC(=O)[C@H](CCCCN)NC(=O)[C@@H]1CCCN1C(=O)Cc1ccc(CO)cc1)C(N)=O` [Compound 18, (S)—N—((S)-6-amino-1-(((S)-1-amino-5-guanidino-1-oxopentan-2-yl)amino)-1-oxohexan-2-yl)-1-(2-(4-(hydroxymethyl)phenyl)acetyl)pyrrolidine-2-carboxamide] was tested, and the IC50 was 1500 nM.
For `N=C(N)NCCC[C@H](NC(=O)[C@H](CCCNC(=N)N)NC(=O)[C@H](CCCNC(=N)N)NC(=O)[C@H](CCC(N)=O)NC(=O)[C@H](CCCNC(=N)N)NC(=O)[C@H](CCCNC(=N)N)NC(=O)[C@H](CCCCN)NC(=O)[C@H](CCCCN)NC(=O)[C@H](CCCNC(=N)N)NC(=O)CNC(=O)[C@H](CCCNC(=N)N)NC(=O)[C@H](CCCCN)NC(=O)[C@@H]1CCCN1C(=O)Cc1ccc(O)cc1)C(=O)O` [Compound 32, (2-(4-hydroxyphenyl)acetyl)-L-prolyl-L-lysyl-L-arginylglycyl-L-arginyl-L-lysyl-L-lysyl-L-arginyl-L-arginyl-L-glutaminyl-L-arginyl-L-arginyl-L-arginine], the IC50 was 230 ± 30 nM.
For `N=C(N)NCCC[C@H](NC(=O)[C@H](CCCNC(=N)N)NC(=O)[C@H](CCCNC(=N)N)NC(=O)[C@H](CCCNC(=N)N)NC(=O)[C@H](CCCNC(=N)N)NC(=O)[C@H](CCCNC(=N)N)NC(=O)[C@H](CCCCN)NC(=O)[C@@H]1CCCN1C(=O)Cc1cccc2ccccc12)C(N)=O` [Compound 34, (S)—N-((6S,9S,12S,15S,18S,21S,24S)-1,28-diamino-6-carbamoyl-9,12,15,18,21-pentakis(3-guanidinopropyl)-1-imino-8,11,14,17,20,23-hexaoxo-2,7,10,13,16,19,22-heptaazaoctacosan-24-yl)-1-(2-(naphthalen-1-yl)acetyl)pyrrolidine-2-carboxamide] ({Acetyl(1-naphthyl)}-PKRRRRRR-NH2), the IC50 was 68 nM.
Work on `NCCCC[C@H](NC(=O)[C@@H]1CCCN1C(=O)Cc1cccc2ccccc12)C(=O)N[C@@H](CCC(=O)O)C(N)=O` [Compound 39, (S)-5-amino-4-((S)-6-amino-2-((S)-1-(2-(naphthalen-1-yl)acetyl)pyrrolidine-2-carboxamido)hexanamido)-5-oxopentanoic acid] yielded an IC50 of 5760 nM.
